What was measured:
QscR [1] = target: T1, QscR (Pseudomonas aeruginosa, UniProt G3XD77); format: cell-based; settings: for Activation (%): 100% = activity of 3OC12-HSL
QscR [2] = target: T1, QscR; settings: DNA binding of QscR with ligand; Eqn 5
LasR = LasR (Pseudomonas aeruginosa, UniProt P25084); experiment: LasR agonism/antagonism assay, E. coli reporter strain; format: cell-based; settings: Table S2 (supplement not shown)
Sequence of LasR (P25084 whole entry): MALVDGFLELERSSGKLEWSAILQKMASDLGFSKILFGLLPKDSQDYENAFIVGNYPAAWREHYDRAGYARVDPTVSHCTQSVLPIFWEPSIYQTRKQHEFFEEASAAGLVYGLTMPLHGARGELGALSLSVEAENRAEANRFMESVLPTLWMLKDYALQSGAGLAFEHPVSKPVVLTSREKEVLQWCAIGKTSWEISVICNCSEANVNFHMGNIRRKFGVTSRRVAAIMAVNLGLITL

Compound	Activation (%) (QscR [1])	Hill coefficient (QscR [2])	EC50 (QscR [1]; E. coli JLD271 QscR reporter) [nM]	activity on LasR in cell-based reporter assays (LasR)
CCCCCCCCCC(=O)CC(=O)N[C@H]1CCOC1=O [3OC12-HSL, N-(3-oxododecanoyl) L-homoserine lactone]	100	1.7 ± 0.4	–	–
O=C(CCCOc1ccc(Cl)cc1)NC1CCOC1=O (stereo not drawn) [CL]	86	1.9 ± 0.3	16	inhibited
